Laboratory results from PubChem BioAssay (NCI).
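Growth conditions: 96-well plates. Treatment: test compound, 48 hours, 5 concentrations. Analysis: linear interpolation between bracketing concentrations; unreached endpoints set to highest concentration. At the GI50, growth is halved. TGI marks complete inhibition of growth.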

What was measured:
Test in all cases: NCI tumour cell line growth inhibition, 48 h
SR leukemia = system: SR leukemia
RPMI-8226 leukemia = system: RPMI-8226 leukemia
OVCAR-5 ovarian = system: OVCAR-5 ovarian
MOLT-4 leukemia = system: MOLT-4 leukemia
CAKI-1 renal = system: CAKI-1 renal
UACC-257 melanoma = system: UACC-257 melanoma
UO-31 renal = system: UO-31 renal
SN12C renal = system: SN12C renal
HS 578T breast = system: HS 578T breast
NCI-H460 lung = system: NCI-H460 lung
COLO 205 colon = system: COLO 205 colon
BT-549 breast = system: BT-549 breast
HCT-116 colon = system: HCT-116 colon
NCI-H522 lung = system: NCI-H522 lung
NCI-H23 lung = system: NCI-H23 lung
786-0 renal = system: 786-0 renal
A498 renal = system: A498 renal
SNB-19 CNS = system: SNB-19 CNS
KM12 colon = system: KM12 colon
DU-145 prostate = system: DU-145 prostate
MDA-MB-231 breast = system: MDA-MB-231 breast
MCF7 breast = system: MCF7 breast
NCI/ADR-RES ovarian = system: NCI/ADR-RES ovarian
MDA-MB-435 = system: MDA-MB-435
HOP-92 NSCLC = system: HOP-92 NSCLC
M14 melanoma = system: M14 melanoma
HCT-15 colon = system: HCT-15 colon
HOP-62 NSCLC = system: HOP-62 NSCLC
UACC-62 melanoma = system: UACC-62 melanoma
HT29 colon = system: HT29 colon
A549 NSCLC = system: A549 NSCLC
T-47D breast = system: T-47D breast
NCI-H226 lung = system: NCI-H226 lung
RXF 393 renal = system: RXF 393 renal
OVCAR-8 ovarian = system: OVCAR-8 ovarian
MALME-3M melanoma = system: MALME-3M melanoma
PC-3 prostate = system: PC-3 prostate
SW-620 colon = system: SW-620 colon
SNB-75 CNS = system: SNB-75 CNS
SF-295 CNS = system: SF-295 CNS
SK-MEL-2 melanoma = system: SK-MEL-2 melanoma
SK-MEL-28 melanoma = system: SK-MEL-28 melanoma
SF-268 CNS = system: SF-268 CNS
U251 CNS = system: U251 CNS
HCC-2998 colon = system: HCC-2998 colon
EKVX NSCLC = system: EKVX NSCLC
SK-MEL-5 melanoma = system: SK-MEL-5 melanoma
TK-10 renal = system: TK-10 renal
OVCAR-4 ovarian = system: OVCAR-4 ovarian
ACHN renal = system: ACHN renal
SF-539 CNS = system: SF-539 CNS
HL-60(TB) leukemia = system: HL-60(TB) leukemia
IGROV1 ovarian = system: IGROV1 ovarian
OVCAR-3 ovarian = system: OVCAR-3 ovarian
SK-OV-3 ovarian = system: SK-OV-3 ovarian
LOX IMVI melanoma = system: LOX IMVI melanoma
K-562 leukemia = system: K-562 leukemia

## c1cncc(-c2nc3ccccc3s2)c1
SR leukemia
  GI50: > 100 µM
  TGI: > 100 µM
RPMI-8226 leukemia
  GI50: 99.4 µM
  TGI: > 100 µM
OVCAR-5 ovarian
  GI50: > 100 µM
  TGI: > 100 µM
MOLT-4 leukemia
  GI50: 73.7 µM
  TGI: > 100 µM
CAKI-1 renal
  GI50: > 100 µM
  TGI: > 100 µM
UACC-257 melanoma
  GI50: > 100 µM
  TGI: > 100 µM
UO-31 renal
  GI50: 29.5 µM
  TGI: > 100 µM
SN12C renal
  GI50: > 100 µM
  TGI: > 100 µM
HS 578T breast
  GI50: 50.7 µM
  TGI: > 100 µM
NCI-H460 lung
  GI50: > 100 µM
  TGI: > 100 µM
COLO 205 colon
  GI50: > 100 µM
  TGI: > 100 µM
BT-549 breast
  GI50: 74 µM
  TGI: > 100 µM
HCT-116 colon
  GI50: > 100 µM
  TGI: > 100 µM
NCI-H522 lung
  GI50: > 100 µM
  TGI: > 100 µM
NCI-H23 lung
  GI50: > 100 µM
  TGI: > 100 µM
786-0 renal
  GI50: > 100 µM
  TGI: > 100 µM
A498 renal
  GI50: 50.7 µM
  TGI: > 100 µM
SNB-19 CNS
  GI50: > 100 µM
  TGI: > 100 µM
KM12 colon
  GI50: > 100 µM
  TGI: > 100 µM
DU-145 prostate
  GI50: > 100 µM
  TGI: > 100 µM
MDA-MB-231 breast
  GI50: > 100 µM
  TGI: > 100 µM
MCF7 breast
  GI50: > 100 µM
  TGI: > 100 µM
NCI/ADR-RES ovarian
  GI50: > 100 µM
  TGI: > 100 µM
MDA-MB-435
  GI50: > 100 µM
  TGI: > 100 µM
HOP-92 NSCLC
  GI50: 18 µM
  TGI: > 100 µM
M14 melanoma
  GI50: > 100 µM
  TGI: > 100 µM
HCT-15 colon
  GI50: > 100 µM
  TGI: > 100 µM
HOP-62 NSCLC
  GI50: > 100 µM
  TGI: > 100 µM
UACC-62 melanoma
  GI50: > 100 µM
  TGI: > 100 µM
HT29 colon
  GI50: > 100 µM
  TGI: > 100 µM
A549 NSCLC
  GI50: > 100 µM
  TGI: > 100 µM
T-47D breast
  GI50: > 100 µM
  TGI: > 100 µM
NCI-H226 lung
  GI50: > 100 µM
  TGI: > 100 µM
RXF 393 renal
  GI50: 64.7 µM
  TGI: > 100 µM
OVCAR-8 ovarian
  GI50: > 100 µM
  TGI: > 100 µM
MALME-3M melanoma
  GI50: > 100 µM
  TGI: > 100 µM
PC-3 prostate
  GI50: > 100 µM
  TGI: > 100 µM
SW-620 colon
  GI50: > 100 µM
  TGI: > 100 µM
SNB-75 CNS
  GI50: 58.4 µM
  TGI: > 100 µM
SF-295 CNS
  GI50: > 100 µM
  TGI: > 100 µM
SK-MEL-2 melanoma
  GI50: > 100 µM
  TGI: > 100 µM
SK-MEL-28 melanoma
  GI50: > 100 µM
  TGI: > 100 µM
SF-268 CNS
  GI50: > 100 µM
  TGI: > 100 µM
U251 CNS
  GI50: 97 µM
  TGI: > 100 µM
HCC-2998 colon
  GI50: > 100 µM
  TGI: > 100 µM
EKVX NSCLC
  GI50: 41.2 µM
  TGI: > 100 µM
SK-MEL-5 melanoma
  GI50: > 100 µM
  TGI: > 100 µM
TK-10 renal
  GI50: > 100 µM
  TGI: > 100 µM
OVCAR-4 ovarian
  GI50: > 100 µM
  TGI: > 100 µM
ACHN renal
  GI50: 95.1 µM
  TGI: > 100 µM
SF-539 CNS
  GI50: > 100 µM
  TGI: > 100 µM
HL-60(TB) leukemia
  GI50: > 100 µM
  TGI: > 100 µM
IGROV1 ovarian
  GI50: 42.6 µM
  TGI: > 100 µM
OVCAR-3 ovarian
  GI50: > 100 µM
  TGI: > 100 µM
SK-OV-3 ovarian
  GI50: > 100 µM
  TGI: > 100 µM
LOX IMVI melanoma
  GI50: > 100 µM
  TGI: > 100 µM
K-562 leukemia
  GI50: > 100 µM
  TGI: > 100 µM
